# Calls of active or inactive are those of the source. The calls are words filed in the database; no cut-off is given here.
# What was measured:
# Salmonella typhimurium [1] = assay: Suppression of Salmonella enterica serovar Typhimurium 4/74 infection-induced inflammatory response in Friesian bull intestinal ligated loop model assessed as polymorphonuclear leucocyte influx at 100 uM coadministered with bacterial challenge; type: functional, organism-based; settings: Salmonella enterica subsp. enterica serovar Typhimurium
# Salmonella typhimurium [2] = assay: Reduction of Salmonella enterica serovar Typhimurium 4/74 invasion of human HeLa cells preincubated at 100 uM for 1 hr relative to control; type: functional, Salmonella enterica subsp. enterica serovar Typhimurium; parameters: scale not given: the % may be the effect or the level left
# Salmonella typhimurium [3] = assay: Suppression of 1.5 hrs 100 uM pretreated Salmonella enterica serovar Typhimurium 4/74 infection-induced intestinal secretory response in Friesian bull intestinal ligated loop model; type: functional, organism-based; settings: Salmonella enterica subsp. enterica serovar Typhimurium
# [4] = test system: Salmonella enterica subsp. enterica serovar Typhimurium; assay: Inhibition of T3SS-1-mediated secretion of SopE protein in Salmonella enterica serovar Typhimurium 4/74 at 100 uM after 4 hrs by SDS-PAGE
# [5] = test system: Salmonella enterica subsp. enterica serovar Typhimurium; assay: Inhibition of T3SS-1-mediated secretion of SipA protein in Salmonella enterica serovar Typhimurium 4/74 after 4 hrs by SDS-PAGE
# [6] = test system: Salmonella enterica subsp. enterica serovar Typhimurium; assay: Inhibition of T3SS-1-mediated secretion of SipA protein in Salmonella enterica serovar Typhimurium 4/74 at 100 uM after 4 hrs by SDS-PAGE
# [7] = test system: Salmonella enterica subsp. enterica serovar Typhimurium; assay: Inhibition of T3SS-1-mediated secretion of SipC protein in Salmonella enterica serovar Typhimurium 4/74 after 4 hrs by SDS-PAGE
# [8] = test system: Salmonella enterica subsp. enterica serovar Typhimurium; assay: Inhibition of T3SS-1-mediated secretion of SopE protein in Salmonella enterica serovar Typhimurium 4/74 after 4 hrs by SDS-PAGE
# HeLa = assay: Toxicity against human HeLa cells at 0.1 to 10 uM after 3 hrs; type: cell-based
# Salmonella typhimurium [9] = assay: Effect on viability of Salmonella enterica serovar Typhimurium 4/74 at 100 uM after 4 hrs; type: functional, organism-based; settings: Salmonella enterica subsp. enterica serovar Typhimurium
# Salmonella typhimurium [10] = assay: Suppression of 1.5 hrs 100 uM pretreated Salmonella enterica serovar Typhimurium 4/74 infection-induced inflammatory response in Friesian bull intestinal ligated loop model assessed as polymorphonuclear leucocyte influx; type: functional, organism-based; settings: Salmonella enterica subsp. enterica serovar Typhimurium
# Salmonella typhimurium [11] = assay: Suppression of Salmonella enterica serovar Typhimurium 4/74 infection-induced intestinal secretory response in Friesian bull intestinal ligated loop model at 100 uM coadministered with bacterial challenge; type: functional, organism-based; settings: Salmonella enterica subsp. enterica serovar Typhimurium
# [12] = test system: Salmonella enterica subsp. enterica serovar Typhimurium; assay: Inhibition of T3SS-1-mediated secretion of SipC protein in Salmonella enterica serovar Typhimurium 4/74 at 100 uM after 4 hrs by SDS-PAGE
# [13] = test system: Salmonella enterica subsp. enterica serovar Typhimurium; assay: Inhibition of T3SS-1 associated virulence phenotype in 1.5 hrs 100 uM pretreated Salmonella enterica serovar Typhimurium 4/74 assessed as reduction of contact dependent hemolysis of sheep erythrocytes relative to wild-type
SMILES,Activity (Salmonella typhimurium [1]),Activity (Salmonella typhimurium [2]) [%],Activity (Salmonella typhimurium [3]),Activity [4],Activity [5],Activity [6],%max [7],Activity [8],Activity (HeLa),Activity (Salmonella typhimurium [9]),Activity (Salmonella typhimurium [10]),Activity (Salmonella typhimurium [11]),Activity [12],Activity [13]
O=C(N/N=C/c1cc(Br)cc(Br)c1O)c1ccc([N+](=O)[O-])cc1,inactive,47,Active,Active,Dose-dependent effect,Active,Dose-dependent effect,Dose-dependent effect,Non-toxic,inactive,Active,inactive,Active,Active
O=C(N/N=C/c1cc(Cl)cc(Cl)c1O)c1ccccc1,inactive,60,Active,Active,Dose-dependent effect,Active,Dose-dependent effect,Dose-dependent effect,Non-toxic,inactive,Active,inactive,Active,Active

# Reference: ChEMBL document CHEMBL1157369, “Inhibition of type III secretion in Salmonella enterica serovar Typhimurium by small-molecule inhibitors” (Antimicrob Agents Chemother, 2007)
